pIC50: −log10 of the molar value. One block for each compound: values may come before it.
Test system: SYO-1 complex spheroid growth, percent test/control
Assay: Anticancer human tumor SYO-1 cell line growth inhibition [Asc];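 also: compound exposure lasted 7 days after spheroids grew 3 days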;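 as to viability, T/C: 100% = DMSO vehicle control viability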
Conditions: for pIC50: curve of first compound; for viability, T/C: stronger effect = lower value
Outline: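 Concentration series start at each agent's clinical Cmax, or at 10 microM when none is established, and drop in half-log steps; agents are applied alone or together to complex spheroids built with HUVEC and hMSC.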

[1] = second compound 0.00949 µM, first compound 0.0316 µM
[2] = second compound 0.00949 µM, first compound 0.1 µM
[3] = second compound 0.00949 µM, first compound 0.316 µM
[4] = second compound 0.00949 µM, first compound 1 µM
[5] = second compound 0.03 µM, first compound 0.0316 µM
[6] = second compound 0.03 µM, first compound 0.1 µM
[7] = second compound 0.03 µM, first compound 0.316 µM
[8] = second compound 0.03 µM, first compound 1 µM
[9] = second compound 0.0949 µM, first compound 0.0316 µM
[10] = second compound 0.0949 µM, first compound 0.1 µM
[11] = second compound 0.0949 µM, first compound 0.316 µM
[12] = second compound 0.0949 µM, first compound 1 µM
[13] = second compound 0.3 µM, first compound 0.0316 µM
[14] = second compound 0.3 µM, first compound 0.1 µM
[15] = second compound 0.3 µM, first compound 0.316 µM
[16] = second compound 0.3 µM, first compound 1 µM
[17] = second compound 0.949 µM, first compound 0.0316 µM
[18] = second compound 0.949 µM, first compound 0.1 µM
[19] = second compound 0.949 µM, first compound 0.316 µM
[20] = second compound 0.949 µM, first compound 1 µM
[21] = second compound 3 µM, first compound 0.0316 µM
[22] = second compound 3 µM, first compound 0.1 µM
[23] = second compound 3 µM, first compound 0.316 µM
[24] = second compound 3 µM, first compound 1 µM
[25] = second compound 0.00949 µM, first compound 0.00316 µM
[26] = second compound 0.00949 µM, first compound 0.01 µM
[27] = second compound 0.03 µM, first compound 0.00316 µM
[28] = second compound 0.03 µM, first compound 0.01 µM
[29] = second compound 0.0949 µM, first compound 0.00316 µM
[30] = second compound 0.0949 µM, first compound 0.01 µM
[31] = second compound 0.3 µM, first compound 0.00316 µM
[32] = second compound 0.3 µM, first compound 0.01 µM
[33] = second compound 0.949 µM, first compound 0.00316 µM
[34] = second compound 0.949 µM, first compound 0.01 µM
[35] = second compound 3 µM, first compound 0.00316 µM
[36] = second compound 3 µM, first compound 0.01 µM

pIC50 (second compound 0.00949 µM): < 5.00
pIC50 (second compound 0.03 µM): < 5.00
pIC50 (second compound 0.0949 µM): < 5.00
pIC50 (second compound 0.3 µM): > 7.50
pIC50 (second compound 0.949 µM): > 7.50
pIC50 (second compound 3 µM): > 7.50
Compound: C=CC(=O)N1CCN(c2nc(=O)n(-c3c(C)ccnc3C(C)C)c3nc(-c4c(O)cccc4F)c(F)cc23)C(C)C1 (stereo unspecified) + CCN1C(C(=O)NC23CCC(C(=O)O)(CC2)CC3)C(c2cccc(Cl)c2F)C2(C(=O)Nc3cc(Cl)ccc32)C12CCCCC2
viability, T/C [1]: 101%
viability, T/C [2]: 104%
viability, T/C [3]: 103%
viability, T/C [4]: 103%
viability, T/C (second compound 0.00949 µM, first compound 3.16 µM): 92%
viability, T/C (second compound 0.00949 µM, first compound 10 µM): 89.1%
viability, T/C [5]: 98%
viability, T/C [6]: 94.7%
viability, T/C [7]: 96.7%
viability, T/C [8]: 103%
viability, T/C (second compound 0.03 µM, first compound 3.16 µM): 97.6%
viability, T/C (second compound 0.03 µM, first compound 10 µM): 81.8%
viability, T/C [9]: 78.5%
viability, T/C [10]: 84%
viability, T/C [11]: 76.7%
viability, T/C [12]: 79.4%
viability, T/C (second compound 0.0949 µM, first compound 3.16 µM): 75.9%
viability, T/C (second compound 0.0949 µM, first compound 10 µM): 56.2%
viability, T/C [13]: 29.8%
viability, T/C [14]: 25.3%
viability, T/C [15]: 25.2%
viability, T/C [16]: 20.8%
viability, T/C (second compound 0.3 µM, first compound 3.16 µM): 21.3%
viability, T/C (second compound 0.3 µM, first compound 10 µM): 12.2%
viability, T/C [17]: 3.03%
viability, T/C [18]: 4.04%
viability, T/C [19]: 2.34%
viability, T/C [20]: 2.88%
viability, T/C (second compound 0.949 µM, first compound 3.16 µM): 2.48%
viability, T/C (second compound 0.949 µM, first compound 10 µM): 2.88%
viability, T/C [21]: 1.34%
viability, T/C [22]: 1.23%
viability, T/C [23]: 1.3%
viability, T/C [24]: 1.29%
viability, T/C (second compound 3 µM, first compound 3.16 µM): 1.12%
viability, T/C (second compound 3 µM, first compound 10 µM): 1.29%

pIC50 (second compound 0.00949 µM): < 6.00
pIC50 (second compound 0.03 µM): < 6.00
pIC50 (second compound 0.0949 µM): < 6.00
pIC50 (second compound 0.3 µM): > 8.50
pIC50 (second compound 0.949 µM): > 8.50
pIC50 (second compound 3 µM): > 8.50
Compound: CNC(C)C(=O)NC1CN(S(=O)(=O)c2cccc(S(=O)(=O)N3CCC4CCC(C(=O)NC(c5ccccc5)c5ccccc5)N4C(=O)C(NC(=O)C(C)NC)C3)c2)CCC2CCC(C(=O)NC(c3ccccc3)c3ccccc3)N2C1=O (stereo unspecified) + CCN1C(C(=O)NC23CCC(C(=O)O)(CC2)CC3)C(c2cccc(Cl)c2F)C2(C(=O)Nc3cc(Cl)ccc32)C12CCCCC2
viability, T/C [25]: 109%
viability, T/C [26]: 104%
viability, T/C [1]: 104%
viability, T/C [2]: 112%
viability, T/C [3]: 113%
viability, T/C [4]: 98.7%
viability, T/C [27]: 99.2%
viability, T/C [28]: 99.9%
viability, T/C [5]: 99.2%
viability, T/C [6]: 105%
viability, T/C [7]: 101%
viability, T/C [8]: 96.6%
viability, T/C [29]: 85.7%
viability, T/C [30]: 82.6%
viability, T/C [9]: 76.7%
viability, T/C [10]: 75.3%
viability, T/C [11]: 81.2%
viability, T/C [12]: 70.6%
viability, T/C [31]: 26.2%
viability, T/C [32]: 20%
viability, T/C [13]: 16.1%
viability, T/C [14]: 15.6%
viability, T/C [15]: 16%
viability, T/C [16]: 13.4%
viability, T/C [33]: 4.14%
viability, T/C [34]: 1.95%
viability, T/C [17]: 1.29%
viability, T/C [18]: 1.74%
viability, T/C [19]: 0.96%
viability, T/C [20]: 0.61%
viability, T/C [35]: 1.42%
viability, T/C [36]: 1.29%
viability, T/C [21]: 0.76%
viability, T/C [22]: 1.16%
viability, T/C [23]: 0.78%
viability, T/C [24]: 0.82%

pIC50 (second compound 0.00949 µM): 6.10
pIC50 (second compound 0.03 µM): 6.27
pIC50 (second compound 0.0949 µM): 6.91
pIC50 (second compound 0.3 µM): > 8.50
pIC50 (second compound 0.949 µM): > 8.50
pIC50 (second compound 3 µM): > 8.50
Compound: COc1c(OCCCN2CCOCC2)ccc2c3n(c(=NC(=O)c4cnc(N)nc4)nc12)CCN3 + CCN1C(C(=O)NC23CCC(C(=O)O)(CC2)CC3)C(c2cccc(Cl)c2F)C2(C(=O)Nc3cc(Cl)ccc32)C12CCCCC2
viability, T/C [25]: 110%
viability, T/C [26]: 109%
viability, T/C [1]: 101%
viability, T/C [2]: 85.2%
viability, T/C [3]: 75.4%
viability, T/C [4]: 43.4%
viability, T/C [27]: 103%
viability, T/C [28]: 103%
viability, T/C [5]: 96.9%
viability, T/C [6]: 80.8%
viability, T/C [7]: 69.3%
viability, T/C [8]: 30.6%
viability, T/C [29]: 85.8%
viability, T/C [30]: 86.3%
viability, T/C [9]: 77.2%
viability, T/C [10]: 52.1%
viability, T/C [11]: 32.2%
viability, T/C [12]: 16%
viability, T/C [31]: 20.3%
viability, T/C [32]: 23.4%
viability, T/C [13]: 19.3%
viability, T/C [14]: 16.3%
viability, T/C [15]: 12%
viability, T/C [16]: 2.7%
viability, T/C [33]: 2.01%
viability, T/C [34]: 3.89%
viability, T/C [17]: 3.28%
viability, T/C [18]: 2.38%
viability, T/C [19]: 3.39%
viability, T/C [20]: 0.44%
viability, T/C [35]: 1.01%
viability, T/C [36]: 1.03%
viability, T/C [21]: 1.75%
viability, T/C [22]: 0.55%
viability, T/C [23]: 0.57%
viability, T/C [24]: 0.45%
